# Test results reported in patent US12065416B2, “cGAS antagonist compounds” (IMMUNESENSOR THERAPEUTICS, INC., priority 2016, dated 2024).
# Target: T1, recombinant cGAS (aa147-522) (Homo sapiens, UniProt Q8N884)
# T1 construct: recombinant cGAS (aa147-522); His6-SUMO (N, cleaved yes); made in house; host or cells: E. coli BL21/pLys
# Experiment: In vitro assay for inhibition of cGAS activity (ATP consumption, Kinase Glo)
# Type: biochemical
# Details: 37° C. 20 minutes, read-out: Activity (Inhibition of cGAS enzyme activity in vitro, IC50)
# Description: cDNA encoding full-length or amino acids 147-520 of human cGAS is inserted into a modified pET28a vector containing an in-frame His6-SUMO tag. The E. coli strain BL21/pLys harboring the plasmid is induced with 0.5 mM IPTG at 18° C. overnight. His6-SUMO tag was removed by a SUMO proease following purification of the HiS-SUMO-cGAS as described previously (Sun et al, 2013, Science 339, 786).
# A40 μL mixture containing 1.5 ng/μL of recombinant cGAS (aa147-522) and serial dilutions of a test compound or DMSO was added to a 96-well plate and incubated at 37° C. for 20 minutes. At the end of reaction, 20 μL of Kinase Glo (Promega) was added and chemiluminescence measured with a luminometer. Inhibitory effect of a compound is evaluated by plotting percentage of ATP consumption against logarithm of compound concentrations. IC50 value was calculated using Graphpad (Sigma).
# T1 sequence (Q8N884 147-522): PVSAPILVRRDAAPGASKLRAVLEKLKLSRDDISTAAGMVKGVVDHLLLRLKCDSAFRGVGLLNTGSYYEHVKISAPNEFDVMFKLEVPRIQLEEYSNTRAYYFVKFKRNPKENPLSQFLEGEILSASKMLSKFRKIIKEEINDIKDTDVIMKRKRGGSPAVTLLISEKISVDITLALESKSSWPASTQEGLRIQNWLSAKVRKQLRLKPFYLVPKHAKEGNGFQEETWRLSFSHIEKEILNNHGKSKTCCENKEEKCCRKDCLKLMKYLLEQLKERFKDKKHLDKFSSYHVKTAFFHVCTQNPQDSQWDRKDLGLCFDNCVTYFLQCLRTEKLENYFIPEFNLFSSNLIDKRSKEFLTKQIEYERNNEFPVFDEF
row,IC50,SMILES
1,≤ 0.5 µM,CN1C(=O)S/C(=C\c2cc(OCCc3cnc(N)nc3N)c(O)c(F)c2Br)C1=O [ExB32]
2,0.5 to 10 µM,COc1nc([S+](C)[O-])ncc1COc1cc(/C=C2\SC(=O)N(C)C2=O)c(Br)cc1O (stereo not shown) [Ex212]
3,≥ 10 µM,COc1cccc(Oc2cc(/C=C3\SC(=O)N(C)C3=O)c(Br)cc2O)c1N [ExB11]
4,≥ 10 µM,CCC/N=C1/S/C(=C\c2cc(OC)c(O)cc2Br)C(=O)N1C [ExB24]
5,0.5 to 10 µM,COc1nc(S(C)(=O)=O)ncc1COc1cc(/C=C2\SC(=O)N(C)C2=O)c(Br)cc1O [Ex220]
6,≥ 10 µM,CN1C(=O)S/C(=C\c2cc(Oc3cccc4ncccc34)c(O)cc2Br)C1=O [ExB5]
7,0.5 to 10 µM,CN1C(=O)S/C(=C\c2cc(OCc3cnc(S)nc3)c(O)cc2Br)C1=O [Ex219]
8,≥ 10 µM,CC(C)C(=O)Nc1cncc(COc2cc(/C=C3\SC(=O)N(C)C3=O)c(Br)cc2O)c1 [Ex226]
9,0.5 to 10 µM,CN1C(=O)S/C(=C\c2cc(OCC3(c4cnc(N)nc4)CC3)c(O)c(F)c2Br)C1=O [ExB6]
10,≥ 10 µM,CC(C)CNc1cncc(COc2cc(/C=C3\SC(=O)N(C)C3=O)c(Br)cc2O)c1 [Ex229]
11,0.5 to 10 µM,CN1C(=O)S/C(=C\c2cc(Oc3ccc(=O)[nH]c3)c(O)cc2Br)C1=O [Ex231]
12,≤ 0.5 µM,CSc1nc([S+](C)[O-])ncc1COc1cc(/C=C2\Sc3ncccc3C2=O)c(Br)c(F)c1O (stereo not shown) [ExA16]
13,0.5 to 10 µM,COc1nc(N)ncc1COc1cc(/C=C2\SC(=O)N(C)C2=O)c(Br)cc1O [Ex222]
14,≤ 0.5 µM,CN1C(=O)S/C(=C\c2cc(OCc3cncnc3O)c(O)cc2Br)C1=O [Ex218]
15,≥ 10 µM,CC/N=C1/S/C(=C\c2cc(OC)c(O)cc2Br)C(=O)N1C [ExB23]
16,≥ 10 µM,CN1C(=O)S/C(=C\c2cc(OCc3cncc(NCc4ccncc4)c3)c(O)cc2Br)C1=O [Ex228]
17,0.5 to 10 µM,CN1C(=O)S/C(=C\c2cc(OCc3ccnc4ccccc34)c(O)cc2Br)C1=O [Ex178]
18,≤ 0.5 µM,Cc1nc(N)ncc1COc1cc(/C=C2\Sc3ncccc3C2=O)c(Br)c(F)c1O [ExA8]
19,0.5 to 10 µM,CN1C(=O)S/C(=C\c2cc(CCc3cnc(N)nc3)c(O)cc2Br)C1=O [ExB41]
20,0.5 to 10 µM,Cc1nc(N)nc(C)c1COc1cc(/C=C2\SC(=O)N(C)C2=O)c(Br)cc1O [Ex223]
21,0.5 to 10 µM,COCCNc1ncc(C(C)Oc2cc(/C=C3\SC(=O)N(C)C3=O)c(Br)cc2O)cn1 (stereo not shown) [Ex182]
22,0.5 to 10 µM,CN1C(=O)S/C(=C\c2cc(C(C)(F)F)c(O)cc2Br)C1=O [Ex210]
23,≥ 10 µM,CN1C(=O)S/C(=C\c2cc(Oc3cccc4cnccc34)c(O)cc2Br)C1=O [ExB25]
24,≤ 0.5 µM,CNc1ncc(COc2cc(/C=C3\SC(=O)N(C)C3=O)c(Br)c(F)c2O)cn1 [Ex187]
25,≥ 10 µM,CN1C(=O)S/C(=C\c2cc(OCc3cn(-c4ccccc4)nn3)c(O)cc2Br)C1=O [Ex232]
26,≥ 10 µM,CC(=O)c1cc(N)ccc1Oc1cc(/C=C2\SC(=O)N(C)C2=O)c(Br)c(F)c1O [ExB7]
27,≥ 10 µM,CC(=O)c1cc(/C=C2\SC(=O)N(C)C2=O)c(Br)cc1Oc1cnc(N)s1 [ExB34]
28,0.5 to 10 µM,CN1C(=O)S/C(=C\c2cc(OCc3cnc([S+](C)[O-])nc3Cl)c(O)cc2Br)C1=O (stereo not shown) [Ex214]
29,0.5 to 10 µM,CC(Oc1cc(/C=C2\SC(=O)N(C)C2=O)c(Br)c(F)c1Oc1cnc(N)s1)c1cnc(N)nc1 (stereo not shown) [ExB10]
30,0.5 to 10 µM,CN1C(=O)S/C(=C\c2cc(OCc3cnc(O)nc3)c(O)cc2Br)C1=O [Ex217]

# Further lines, the molecule ahead of its results:
row,SMILES,IC50
1,CC(Oc1cc(/C=C2\SC(=O)N(C)C2=O)c(Br)cc1O)c1cnc(Cl)nc1 (stereo not shown) [Ex104],0.5 to 10 µM
2,CN1CCN(c2ncc(COc3cc(/C=C4\SC(=O)N(C)C4=O)c(Br)cc3O)cn2)CC1 [Ex167],0.5 to 10 µM
3,O=C1/C(=C/c2cc3oc(=O)[nH]c3cc2Br)Sc2ncccc21 [Ex26],0.5 to 10 µM
4,CC(Oc1cc(/C=C2\Sc3ncccc3C2=O)c(Br)cc1O)c1cccnc1 (stereo not shown) [Ex119],0.5 to 10 µM
5,CN1C(=O)S/C(=C\c2cc(OCc3ccn(Cc4ccccc4)c(=O)c3)c(O)cc2Br)C1=O [Ex91],0.5 to 10 µM
6,CN1C(=O)S/C(=C\c2cc(OCc3cnc(Nc4ccccc4)nc3)c(O)cc2Br)C1=O [Ex158],0.5 to 10 µM
7,CC(C)CNc1ncc(COc2cc(/C=C3\SC(=O)N(C)C3=O)c(Br)cc2O)cn1 [Ex151],0.5 to 10 µM
8,COc1cc(/C=C2\SC(=O)N(C)C2=O)c(Br)cc1-c1nn[nH]n1 [Ex35],0.5 to 10 µM
9,CSc1cc(/C=C2\SC(=O)N(C)C2=O)c(Br)cc1O [Ex69],0.5 to 10 µM
10,CN1C(=O)S/C(=C\c2cc(O)c(O)cc2F)C1=O [Ex10],≥ 10 µM
11,COc1cc(/C=C2\Sc3ncccc3C2=O)c(I)cc1O [Ex77],≤ 0.5 µM
12,O=C1NC(=O)/C(=C/c2cncnc2)S1 [Ex8],≥ 10 µM
13,Cc1ncc(COc2cc(/C=C3\Sc4ncccc4C3=O)c(Br)cc2O)c(C)n1 [Ex120],≤ 0.5 µM
14,CC(C)COc1cc(/C=C2\SC(=O)N(C)C2=O)c(Br)cc1O [Ex85],0.5 to 10 µM
15,COc1cc(/C=C2\SC(=O)N(C)C2=O)c(Br)c(Cl)c1O [Ex34],0.5 to 10 µM
16,CN1C(=O)S/C(=C\c2cc(OCC3CCN(C(=O)c4ccccn4)CC3)c(O)cc2Br)C1=O [Ex128],0.5 to 10 µM
17,COc1cc(/C=C2\SC(=O)N(C)C2=O)c(Br)cc1NS(=O)(=O)c1ccccc1 [Ex23],≥ 10 µM
18,CN1C(=O)S/C(=C\c2cc(OCC3CCN(C(=O)c4cccnc4)CC3)c(O)cc2Br)C1=O [Ex129],0.5 to 10 µM
19,CN1C(=O)S/C(=C\c2cc(OCc3ccc4ncccc4c3)c(O)cc2Br)C1=O [Ex174],≥ 10 µM
20,CN1C(=O)S/C(=C\c2cc(OCc3cnc(C4CCNCC4)nc3)c(O)cc2Br)C1=O [Ex95],0.5 to 10 µM
21,CN1C(=O)S/C(=C\c2cc(OCc3cnc(Nc4ccccn4)nc3)c(O)cc2Br)C1=O [Ex83],0.5 to 10 µM
22,COc1cc(/C=C2\Sc3ncccc3C2=O)c(Br)c(Cl)c1O [Ex46],≤ 0.5 µM
23,O=C1NC(=O)/C(=C/c2cnccn2)S1 [Ex7],≥ 10 µM
24,CN1C(=O)S/C(=C\c2cc(OCc3cnc(-n4ccnc4)nc3)c(O)cc2Br)C1=O [Ex168],0.5 to 10 µM
25,CN1C(=O)S/C(=C\c2cc(OCc3cnc(-c4ccncc4)nc3)c(O)cc2Br)C1=O [Ex146],≤ 0.5 µM
26,CSc1ncc(COc2cc(/C=C3\SC(=O)N(C)C3=O)c(Br)cc2O)c(Cl)n1 [Ex98],0.5 to 10 µM
27,CN1C(=O)S/C(=C\c2cc(OCc3cccc4cnccc34)c(O)cc2Br)C1=O [Ex173],0.5 to 10 µM
28,COc1cc(/C=C2\Sc3ncccc3C2=O)c(Br)cc1Oc1cnc(N)s1 [Ex74],0.5 to 10 µM

row,SMILES,IC50
1,COc1cc2c(cc1O)CC/C2=C1/SC(=O)N(C)C1=O [Ex13],≥ 10 µM
2,CN1C(=O)S/C(=C\c2ccc(O)cc2Br)C1=O [Ex52],0.5 to 10 µM
3,Cc1ncc(COc2cc(/C=C3\SC(=O)N(C)C3=O)c(Br)cc2O)cn1 [Ex142],≤ 0.5 µM
4,COc1ncc(COc2cc(/C=C3\SC(=O)N(C)C3=O)c(Br)cc2O)cn1 [Ex143],0.5 to 10 µM
5,CC(=O)Nc1ncc(S(=O)(=O)Nc2cc(Br)c(/C=C3\SC(=O)N(C)C3=O)cc2OCc2ccccc2)s1 [Ex62],0.5 to 10 µM
6,CN1C(=O)S/C(=C\c2cc(OCc3cnc(-c4ccccn4)nc3)c(O)cc2Br)C1=O [Ex97],0.5 to 10 µM
7,CN1C(=O)S/C(=C\c2cc(Oc3ccc([N+](=O)[O-])nc3)c(O)cc2Br)C1=O [Ex102],0.5 to 10 µM
8,CN1C(=O)S/C(=C\c2cc(OCc3ccc(NC(=O)c4cccnc4)nc3)c(O)cc2Br)C1=O [Ex55],0.5 to 10 µM
9,COc1cc(/C=C2\SC(=O)N(C)C2=O)c(C)cc1O [Ex64],0.5 to 10 µM
10,CN1C(=O)S/C(=C\c2cc(OCc3ccccc3)c(O)cc2Br)C1=O [Ex88],0.5 to 10 µM
11,CN1C(=O)S/C(=C\c2cc(OCc3ccc(=O)[nH]c3)c(O)cc2Br)C1=O [Ex125],0.5 to 10 µM
12,CN1C(=O)S/C(=C\c2cc(OCc3ccccn3)c(O)cc2Br)C1=O [Ex89],0.5 to 10 µM
13,N=C1NC(=O)/C(=C/c2ccncc2)S1 [Ex9],≥ 10 µM
14,O=C1NC(=O)/C(=C/c2ccncc2)S1 [Ex1],≤ 0.5 µM
15,CNc1ncc(C(C)Oc2cc(/C=C3\SC(=O)N(C)C3=O)c(Br)cc2O)cn1 (stereo not shown) [Ex105],0.5 to 10 µM
16,CN1C(=O)S/C(=C\c2cc(OCc3cnc(N)nc3C3CC3)c(O)c(F)c2Br)C1=O [Ex109],0.5 to 10 µM
17,CN1C(=O)S/C(=C\c2cc(OCc3cnc(N(C)C)nc3)c(O)cc2Br)C1=O [Ex162],≥ 10 µM
18,CSc1ncc(COc2cc(/C=C3\SC(=O)N(C)C3=O)c(Br)cc2O)c(SC)n1 [Ex100],≥ 10 µM
19,CN1C(=O)S/C(=C\c2cc(OCc3cnc(N4CCCC4)nc3)c(O)cc2Br)C1=O [Ex163],≥ 10 µM
20,Cc1cnccc1/C=C1\SC(=O)NC1=O [Ex3],≤ 0.5 µM
21,CN1C(=O)S/C(=C\c2cc(OCc3cnc(N4CCOCC4)nc3)c(O)cc2Br)C1=O [Ex166],≥ 10 µM
22,CN1C(=O)S/C(=C\c2cc(Oc3ccccc3)c(O)cc2Br)C1=O [Ex27],0.5 to 10 µM
23,O=C1/C(=C/c2cc(OCc3ccncc3)c(O)cc2Br)Sc2ncccc21 [Ex72],≤ 0.5 µM
24,CN1C(=O)S/C(=C\c2cc(OCc3ccn(-c4ccccc4)c(=O)c3)c(O)cc2Br)C1=O [Ex136],0.5 to 10 µM
25,COc1cc(/C(Br)=C2\SC(=O)N(C)C2=O)c(Br)cc1O [Ex20],≥ 10 µM
26,CN1C(=O)S/C(=C\c2cc(OCc3cnc(Nc4cccnc4)nc3)c(O)cc2Br)C1=O [Ex159],0.5 to 10 µM
27,CN1C(=O)S/C(=C\c2cc(OCc3ccc(NC(=O)c4ccncc4)nc3)c(O)cc2Br)C1=O [Ex54],≤ 0.5 µM
